Measurements: ChEMBL document CHEMBL3259619, “Antibacterial activity of a series of N2,N4-disubstituted quinazoline-2,4-diamines” (J Med Chem, 2014)
Converted amounts (≈) assume the structure as drawn. The source made the active and inactive calls. Unless noted, the calls are words filed in the database; no cut-off is given here.

Legend:
[1] = system: Staphylococcus aureus; assay: Antimicrobial activity against Staphylococcus aureus; assay type: functional, organism-based
[2] = system: Escherichia coli; assay: Antimicrobial activity against Escherichia coli; assay type: functional
[3] = system: Klebsiella pneumoniae; assay: Antimicrobial activity against Klebsiella pneumoniae; assay type: functional
[4] = system: Klebsiella pneumoniae; assay: Antimicrobial activity against Klebsiella pneumoniae infected in mouse assessed as survival rate at 100 mg/kg; assay type: functional
[5] = system: Staphylococcus aureus; assay: Antimicrobial activity against methicillin-resistant Staphylococcus aureus CBD-635 assessed as zone of inhibition at 5 mg/ml after 24 hrs by disk diffusion assay; assay type: functional; conditions: CBD-635, 24 h, read-out: IZ
[6] = system: Staphylococcus aureus; assay: Antimicrobial activity against methicillin-resistant Staphylococcus aureus CBD-635 assessed as complete inhibition of bacterial growth after overnight incubation; assay type: functional
[7] = Aqueous solubility of the compound at pH 7.4 after 18 hrs incubation by HPLC; assay type: physicochemical
[8] = Aqueous solubility of the compound at pH 2 after 18 hrs incubation by HPLC; assay type: physicochemical
[9] = Lipophilicity, log D of the compound at pH 7.4; assay type: physicochemical; conditions: buffer
[10] = Lipophilicity, log D of the compound at pH 3; assay type: physicochemical; conditions: buffer
[11] = system: Staphylococcus aureus; assay: Bactericidal activity against methicillin-resistant Staphylococcus aureus CBD-635 assessed as bacterial killing; assay type: functional
[12] = Cytotoxicity against human A549 cells assessed as cell viability recovery up to 367 uM by MTT assay relative to untreated control; assay type: cell-based; conditions: read-out: Activity
[13] = Cytotoxicity against human A549 cells assessed as cell viability recovery at 1.5 uM by MTT assay relative to untreated control; assay type: cell-based; conditions: read-out: Activity
[14] = Cytotoxicity against human A549 cells assessed as cell viability recovery at 370 uM by MTT assay relative to untreated control; assay type: cell-based; conditions: read-out: Activity
[15] = system: Staphylococcus aureus; assay: Antimicrobial activity against N2,N4-dibenzylquinazoline-2,4-diamine-induced methicillin-resistant Staphylococcus aureus CBD-635 mutant assessed as complete inhibition of bacterial growth after overnight incubation; assay type: functional
[16] = system: Staphylococcus aureus; assay: Antimicrobial activity against N2,N4-dibenzylquinazoline-2,4-diamine-induced methicillin-resistant Staphylococcus aureus CBD-635 mutant M1 assessed as complete inhibition of bacterial growth after overnight incubation; assay type: functional
[17] = system: Staphylococcus aureus; assay: Antimicrobial activity against N2,N4-dibenzylquinazoline-2,4-diamine-induced methicillin-resistant Staphylococcus aureus CBD-635 mutant M2 assessed as complete inhibition of bacterial growth after overnight incubation; assay type: functional
[18] = system: Staphylococcus aureus; assay: Antimicrobial activity against N2,N4-dibenzylquinazoline-2,4-diamine-induced methicillin-resistant Staphylococcus aureus CBD-635 mutant M3 assessed as complete inhibition of bacterial growth after overnight incubation; assay type: functional
[19] = system: Staphylococcus aureus; assay: Antimicrobial activity against N2,N4-dibenzylquinazoline-2,4-diamine-induced methicillin-resistant Staphylococcus aureus CBD-635 mutant M4 assessed as complete inhibition of bacterial growth after overnight incubation; assay type: functional
[20] = system: Staphylococcus aureus; assay: Antimicrobial activity against N2,N4-dibenzylquinazoline-2,4-diamine-induced methicillin-resistant Staphylococcus aureus CBD-635 mutant M5 assessed as complete inhibition of bacterial growth after overnight incubation; assay type: functional
[21] = system: Staphylococcus aureus; assay: Antimicrobial activity against N2,N4-dibenzylquinazoline-2,4-diamine-induced methicillin-resistant Staphylococcus aureus CBD-635 mutant M6 assessed as complete inhibition of bacterial growth after overnight incubation; assay type: functional
[22] = system: Staphylococcus aureus; assay: Antimicrobial activity against N2,N4-dibenzylquinazoline-2,4-diamine-induced methicillin-resistant Staphylococcus aureus CBD-635 mutant M7 assessed as complete inhibition of bacterial growth after overnight incubation; assay type: functional
[23] = system: Staphylococcus aureus; assay: Antimicrobial activity against methicillin-resistant Staphylococcus aureus CBD-635 assessed as complete inhibition of bacterial growth at 5 times MIC after overnight incubation in presence of tetrahydrofolic acid; assay type: functional, organism-based
[24] = system: Staphylococcus aureus; assay: Antimicrobial activity against trimethoprim-resistant Staphylococcus aureus assessed as complete inhibition of bacterial growth after 24 hrs; assay type: functional, organism-based
[25] = system: Staphylococcus aureus; assay: Antimicrobial activity against quinazoline-resistant Staphylococcus aureus assessed as complete inhibition of bacterial growth after 24 hrs; assay type: functional, organism-based
[26] = system: Staphylococcus aureus; assay: Antimicrobial activity against wild type Staphylococcus aureus in presence of sulfamethoxazole; assay type: functional
[27] = system: Staphylococcus aureus; assay: Antimicrobial activity against Staphylococcus aureus infected Galleria mellonella assessed as increase in larvae survival at 5 times MIC; assay type: functional
[28] = system: Staphylococcus aureus; assay: Antimicrobial activity against Staphylococcus aureus infected in mouse assessed as increase in mouse survival at 5 times MIC via tail vein relative to untreated control; assay type: functional
[29] = system: Staphylococcus aureus; assay: Antimicrobial activity against Staphylococcus aureus infected in mouse assessed as increase in mouse survival at 10 times MIC via tail vein relative to untreated control; assay type: functional, organism-based
[30] = system: Staphylococcus aureus; assay: Antimicrobial activity against methicillin-resistant Staphylococcus aureus infected in mouse assessed as complete protection to mouse at MIC via tail vein relative to untreated control; assay type: functional, organism-based
[31] = pampa, pH 7.4
[32] = pampa, pH 4
[33] = system: Staphylococcus aureus; assay: Antibacterial activity against trimethoprim-resistant Staphylococcus aureus; assay type: functional
[34] = system: Staphylococcus aureus; assay: Antibacterial activity against Staphylococcus aureus infected in mouse assessed as protection of mouse; assay type: functional
[35] = system: Staphylococcus aureus; assay: Antimicrobial activity against Staphylococcus aureus infected Galleria mellonella assessed as increase in larvae survival at 10 times MIC; assay type: functional

COc1cc2nc(N3CCC(Nc4ccc(C(=O)O)cc4)CC3)nc(N)c2cc1OC
MIC [1]: 12 µM (≈ 5.08 µg/mL)
MIC [2]: 2 µM (≈ 0.847 µg/mL)
MIC [3]: 12 µM (≈ 5.08 µg/mL)
survival at 100 mg/kg [4]: 40%

c1ccc(CNc2nc(NCc3ccccc3)c3ccccc3n2)cc1
zone of inhibition at 5000 µg/mL [5]: 13 mm
MIC [6]: 2.9 µM (≈ 0.987 µg/mL)
solubility at 18 h [7]: ≤ 10 µM
solubility at 18 h [8]: ≥ 30 µM
logD [9]: 3.82
logD [10]: 2.82
MBC50 [11]: inactive
viability [12]: > 60%
viability at 1.5 µM [13]: 93.2%
viability at 370 µM [14]: 83.6%
MIC [15]: > 590 µM
MIC [16]: > 590 µM
MIC [17]: > 590 µM
MIC [18]: > 590 µM
MIC [19]: > 590 µM
MIC [20]: > 590 µM
MIC [21]: > 590 µM
MIC [22]: > 590 µM
inhibition [23]: inactive
inhibition [24]: Active
inhibition [25]: Active
fractional inhibitory concentration index (FICI) [26]: 0.12
Survival [27]: 50%
Survival [28]: 69%
Activity [29]: Active
Activity [30]: Active
permeability [31]: 383 ×10⁻⁶ cm/s
permeability [32]: 312 ×10⁻⁶ cm/s

Clc1ccc(CNc2nc(NCc3ccccc3)c3ccccc3n2)cc1
MIC [6]: 27 µM (≈ 10.1 µg/mL)
MIC [16]: 27 µM (≈ 10.1 µg/mL)
MIC [17]: 2.7 µM (≈ 1.01 µg/mL)
MIC [18]: 2.7 µM (≈ 1.01 µg/mL)
MIC [19]: 2.7 µM (≈ 1.01 µg/mL)
MIC [20]: 2.7 µM (≈ 1.01 µg/mL)
MIC [21]: 2.7 µM (≈ 1.01 µg/mL)
MIC [22]: 2.7 µM (≈ 1.01 µg/mL)
inhibition [23]: inactive

COc1ccc(CNc2nc(NCc3ccccc3)c3ccccc3n2)cc1
MIC [6]: 0.67 µM (≈ 0.248 µg/mL)
MIC [16]: 0.67 µM (≈ 0.248 µg/mL)
MIC [17]: 0.67 µM (≈ 0.248 µg/mL)
MIC [18]: 0.67 µM (≈ 0.248 µg/mL)
MIC [19]: 270 µM (≈ 100 µg/mL)
MIC [20]: 270 µM (≈ 100 µg/mL)
MIC [21]: 270 µM (≈ 100 µg/mL)
MIC [22]: 270 µM (≈ 100 µg/mL)
inhibition [23]: inactive

Cc1ccc(CNc2nc(NCc3ccccc3)nc3ccccc23)cc1
MIC [6]: 71 µM (≈ 25.2 µg/mL)
MIC [16]: 2.8 µM (≈ 0.992 µg/mL)
MIC [17]: 2.8 µM (≈ 0.992 µg/mL)
MIC [18]: 28 µM (≈ 9.92 µg/mL)
MIC [19]: 28 µM (≈ 9.92 µg/mL)
MIC [20]: 28 µM (≈ 9.92 µg/mL)
MIC [21]: 28 µM (≈ 9.92 µg/mL)
MIC [22]: 28 µM (≈ 9.92 µg/mL)
inhibition [23]: inactive

Cc1cc2nc(-c3nccs3)n(-c3ccc4c(N)nc(N)nc4c3)c2cc1C
MIC [33]: 0.25 µg/mL (≈ 0.645 µM)
PD50 [34]: 2 mg/kg

Cc1ccc(CNc2nc(NCc3ccc(C)cc3)c3ccccc3n2)cc1
MIC [6]: 27 µM (≈ 9.95 µg/mL)
MIC [16]: 27 µM (≈ 9.95 µg/mL)
MIC [17]: 27 µM (≈ 9.95 µg/mL)
MIC [18]: 2.7 µM (≈ 0.995 µg/mL)
MIC [19]: 2.7 µM (≈ 0.995 µg/mL)
MIC [20]: 2.7 µM (≈ 0.995 µg/mL)
MIC [21]: 2.7 µM (≈ 0.995 µg/mL)
MIC [22]: 2.7 µM (≈ 0.995 µg/mL)
inhibition [23]: inactive

Clc1ccc(CNc2nc(NCc3ccc(Cl)cc3)c3ccccc3n2)cc1
MIC [6]: 2.4 µM (≈ 0.982 µg/mL)
MBC50 [11]: 7.2 µM (≈ 2.95 µg/mL)
MIC [16]: 2.4 µM (≈ 0.982 µg/mL)
MIC [17]: 2.4 µM (≈ 0.982 µg/mL)
inhibition [23]: inactive
inhibition [24]: Active
inhibition [25]: Active
fractional inhibitory concentration index (FICI) [26]: 0.12
Survival [27]: 50%
Survival [35]: 60%
